In assay [1] the target is T1, ADAR1p150 (Homo sapiens, UniProt P55265).
T1 sequence (P55265 1-1226): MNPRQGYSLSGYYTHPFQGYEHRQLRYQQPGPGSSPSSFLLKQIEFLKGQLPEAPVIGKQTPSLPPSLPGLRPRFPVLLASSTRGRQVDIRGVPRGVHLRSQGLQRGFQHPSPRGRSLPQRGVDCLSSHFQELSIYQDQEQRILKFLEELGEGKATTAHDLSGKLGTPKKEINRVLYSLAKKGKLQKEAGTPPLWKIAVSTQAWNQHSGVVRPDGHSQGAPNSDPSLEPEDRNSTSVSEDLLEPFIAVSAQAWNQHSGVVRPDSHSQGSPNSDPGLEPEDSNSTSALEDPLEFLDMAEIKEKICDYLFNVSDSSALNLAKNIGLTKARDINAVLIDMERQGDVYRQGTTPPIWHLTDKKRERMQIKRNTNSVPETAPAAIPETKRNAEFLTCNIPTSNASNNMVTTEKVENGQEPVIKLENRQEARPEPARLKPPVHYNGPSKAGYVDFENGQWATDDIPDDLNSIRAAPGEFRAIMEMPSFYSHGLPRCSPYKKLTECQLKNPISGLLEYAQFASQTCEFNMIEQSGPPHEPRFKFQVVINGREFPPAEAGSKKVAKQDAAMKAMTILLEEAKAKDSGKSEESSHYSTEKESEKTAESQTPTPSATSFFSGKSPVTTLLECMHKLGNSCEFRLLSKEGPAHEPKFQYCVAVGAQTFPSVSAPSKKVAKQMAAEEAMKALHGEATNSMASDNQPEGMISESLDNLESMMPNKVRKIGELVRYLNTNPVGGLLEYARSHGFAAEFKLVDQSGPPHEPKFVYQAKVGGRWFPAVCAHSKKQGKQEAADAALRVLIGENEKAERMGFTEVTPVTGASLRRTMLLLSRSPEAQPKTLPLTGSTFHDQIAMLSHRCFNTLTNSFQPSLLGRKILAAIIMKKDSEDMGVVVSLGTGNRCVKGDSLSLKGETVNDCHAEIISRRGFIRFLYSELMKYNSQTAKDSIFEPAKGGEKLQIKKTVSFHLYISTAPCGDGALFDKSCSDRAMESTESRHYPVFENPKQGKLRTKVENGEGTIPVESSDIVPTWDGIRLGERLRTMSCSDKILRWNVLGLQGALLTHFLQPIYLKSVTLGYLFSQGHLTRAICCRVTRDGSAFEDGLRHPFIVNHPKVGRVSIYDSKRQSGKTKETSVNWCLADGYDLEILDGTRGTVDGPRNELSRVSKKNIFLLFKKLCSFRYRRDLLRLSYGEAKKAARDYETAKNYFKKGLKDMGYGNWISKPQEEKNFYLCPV
Description: In vitro editing assay, ADAR1p150. It is filed as biochemical. The settings on record: for IC50: ADAR1p150 (not shown). Here is the method: The in vitro editing reaction mixture, containing 5 nM of telomere RNA:RNA duplex substrates and 75 nM of HAT-ADAR1p110-WT, FLAG-ADAR1p110-WT, or HA-ADAR1p110-EAA protein, was incubated at 37° C. for 2 h in in vitro editing buffer I (20 mM HEPES-KOH PH 7.5, 100 mM NaCl, 0.01% NP-40, 5% glycerol, 1 mM DTT). For editing of RNA:DNA hybrid substrates, in vitro editing buffer II (20 mM HEPES-KOH PH 7.5, 20 mM NaCl, 0.01% NP-40, 5% glycerol, 1 mM DTT) was used. Edited RNA or DNA strands were purified using Dynabeads MyOne Streptavidin C1 (Thermo Fisher Scientific). To remove opposite RNA or DNA strands, rNase H (NEB) or TURBO dNase (Thermo Fisher Scientific) was used, respectively. For sequencing of edited substrates, reverse transcription-PCR was carried out for RNA strands, while PCR was carried out for DNA strands. RT reactions were carried out using SuperScript III Reverse Transcriptase (Thermo Fisher Scientific), and PCR reactions were performed using Platinum Taq DNA polymerase (Thermo Fisher Scientific). PCR products were sequenced using a specific sequencing primer, and the ratio of A and G peaks in the chromatograms were analyzed by CodonCode Aligner (CodonCode Corporation).
Seven additional analogs of ADAR1i-13 (FIG. 5A) were synthesized to determine structural characteristics required for ADAR1 editing inhibitory activity. […] In vitro editing IC50 values of ADAR1i-13, ADAR1i-120, and ADAR1i-124 (FIG. 5A) were similar, in the ~10-20 μM range, for both ADAR1p110 (FIG. 5A) and ADAR1p150 (not shown).

The test system of assay [2] is YUMM1.7 cells. Description: Immunostaining (MAb J2) of unedited dsRNA fibers. It is filed as cell-based, mouse. The settings on record: for Unedited dsRNA fiber structures in cells: immunostaining with MAb J2, YUMM1.7 cells. From the text: FIGS. 7A-7C show analysis of ADAR1i-13 and analogs. […] IC50 values determined by dose-dependent in vitro editing assay are shown for ADAR1 inhibition positive compounds. […] Dumbbell-shaped dsRNA has been reported to form Z-RNA conformation and act as a strong IFN signaling activation triggers. ADAR1p150 mediated A-to-I editing suppresses Z-RNA structure transition and activation of IFN signaling.
It has been reported that the suppression ADAR1 editing activity results in binding of MDA5 to unedited dsRNAs, oligomerization of MDA5-dsRNA complexes, and formation of fiber-like structures (21, 44). These dsRNA fiber structures were detected in cells treated with ADAR1 inhibition active compounds, ADAR1i-13, ADAR1i-120, and ADAR1i-124, but not detected in cells treated with ADAR1 inhibition negative compounds (FIG. 7A).

Assay [3] deals with HeLa cells. Description: Western blotting of treated HeLa cells (DNA damage, M phase arrest, apoptosis). Particulars: 10 μM for ADAR1i-124. It is filed as cell-based, human. Here is the method:
FIGS. 8A-8C show analysis of ADAR1i-124 effects in cancer cells. […] Viability was examined using the Apo Tox-Glo assay system. Control, 0.3% DMSO. Data: mean±SD (n=3). Significant differences identified by two-tailed Student's t-tests: *P<0.05, n.s., not significant. (FIG. 8B) Western blotting analysis of HeLa cells treated with ADAR1i-124 (10 μM).
Dose-dependent selective killing of telomerase reactivated cancer cells was determined (FIG. 9A).
Background: Immunoblotting shows a protein as a band on a membrane.

Entries after “also recorded” stand apart in the source; their conditions may differ.

On to `N#Cc1ccccc1NC(=O)c1sc2ccccc2c1Cl` [ADAR1i-120], for which the 50% inhibitory concentration (IC50) (commonly the concentration at which inhibition is half-maximal) in assay [1] fell in the range of 10 to 20 µM. Moreover, the “Unedited dsRNA fiber structures in cells” value in assay [2] is “detected; also recorded: unedited dsRNA fibers induced”. Further, in assay [3], the “DNA damage, M phase arrest and apoptosis markers” value (“DNA damage” below) was “induced DNA damage, M phase arrest, and apoptosis”.
With `N#Cc1ccc(NC(=O)c2c(Cl)c3ccccc3n2CO)cc1` [ADAR1i-124], the IC50 in assay [1] was in the range of 10 to 20 µM. For the same compound, in assay [1] (result in words), the “Inhibition of ADAR1p150” value is “inhibited both ADAR1p150 and ADAR1p-110”. Also, in assay [2] (RNase III treatment), the “RNase III sensitivity of induced dsRNA fibers” value is “abolished by RNase III treatment; also recorded: sensitive to RNase III treatment”. The “Unedited dsRNA fiber structures in cells” value in assay [2] was “detected; also recorded: unedited dsRNA fibers induced”. For the same compound, the “DNA damage” value in assay [3] is “induced DNA damage, M phase arrest, and apoptosis; also recorded: upregulated g-H2AX, Histone 3 phosphorylated at Serine 10, and cleaved PARP bands”.
In the case of `N#Cc1ccc(NC(=O)c2sc3ccccc3c2Cl)cc1` [ADAR1i-13, 3-chloro-N-(4-cyanophenyl)-1-benzothiophene-2-carboxamide], the IC50 in assay [1] was in the range of 10 to 20 µM. The “Unedited dsRNA fiber structures in cells” value in assay [2] is on record as “detected; also recorded: unedited dsRNA fibers induced”. In addition, the “DNA damage” value in assay [3] is “induced DNA damage, M phase arrest, and apoptosis”.

The values above are taken from US20260272878A1, “ADAR1 INHIBITORS AND USES THEREOF” (THE WISTAR INSTITUTE OF ANATOMY AND BIOLOGY, priority 2023, published 2026).
